molecular target: T1, MreCA (Malassezia restricta, UniProt A0A3G2S4B9); assay: stopped-flow CO2 hydrase assay; format: biochemical; conditions: not given
T1 construct: gene can; recombinant from synthetic gene in pET100D-Topo, E. coli BL21(DE3) codon plus; N-terminal His6-tag fusion, 27 kDa on SDS-PAGE; no tag cleavage told
T1 sequence (A0A3G2S4B9 1-238): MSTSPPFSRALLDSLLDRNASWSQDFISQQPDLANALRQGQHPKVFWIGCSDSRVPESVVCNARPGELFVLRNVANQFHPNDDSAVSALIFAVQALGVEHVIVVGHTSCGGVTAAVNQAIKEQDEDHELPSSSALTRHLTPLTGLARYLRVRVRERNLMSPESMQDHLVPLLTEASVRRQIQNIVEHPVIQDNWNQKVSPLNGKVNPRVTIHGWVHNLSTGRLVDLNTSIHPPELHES

Row | SMILES | Ki
1 | NCCc1ccc(S(N)(=O)=O)cc1 [compound 6, 6] | > 10 µM

same assay, conditions: read-out: MreCA

Row | SMILES | Ki
2 | NS(=O)(=O)c1ccc(S(=O)(=O)Nc2cccc3c(Cl)c[nH]c23)cc1 [IND] | 0.87 µM
3 | NS(=O)(=O)c1ccc(CCO)cc1 [compound 17, 17] | > 10 µM
4 | Nc1ccc(S(N)(=O)=O)cc1 [compound 2, 2] | 4.62 µM
5 | Nc1ccc(S(N)(=O)=O)cc1F [compound 7, 7] | 4.59 µM
6 | Nc1ccc(S(=O)(=O)NCCc2ccc(S(N)(=O)=O)cc2)cc1 [compound 24, 24] | > 10 µM
7 | Nc1cc(Cl)c(S(N)(=O)=O)cc1S(N)(=O)=O [compound 12, 12] | > 10 µM
8 | NC(N)=Nc1nc(CSCCC(N)=NS(N)(=O)=O)cs1 [FAM] | > 10 µM
9 | Nc1cc(C(F)(F)F)c(S(N)(=O)=O)cc1S(N)(=O)=O [compound 11, 11] | 6.76 µM
10 | NS(=O)(=O)c1cc(Cl)cc(Cl)c1O [compound 10, 10] | > 10 µM
11 | CCN[C@H]1CN(CCCOC)S(=O)(=O)c2sc(S(N)(=O)=O)cc21 [BRZ] | 0.7 µM
12 | NS(=O)(=O)c1cccc(S(N)(=O)=O)c1 [compound 3, 3] | > 10 µM
13 | NS(=O)(=O)c1ccc(N2CCCCS2(=O)=O)cc1 [SLT] | 0.67 µM
14 | NS(=O)(=O)c1ccc(C(=O)O)cc1 [compound 18, 18] | > 10 µM
15 | NS(=O)(=O)c1ccc(CO)cc1 [compound 16, 16] | 6.51 µM
16 | NCc1ccc(S(N)(=O)=O)cc1 [compound 5, 5] | > 10 µM
17 | O=C1NS(=O)(=O)c2ccccc21 [SAC] | 6.2 µM
18 | Cn1nc(S(N)(=O)=O)sc1=N [compound 14, 14] | > 10 µM
19 | NS(=O)(=O)c1cc2c(cc1Cl)NCNS2(=O)=O [HCT] | 8.5 µM

Row | SMILES | Ki
20 | Nc1nccc(Nc2ccc(S(N)(=O)=O)cc2)n1 [compound 19, 19] | 7.79 µM
21 | CC(=O)N=c1sc(S(N)(=O)=O)nn1C [MZA] | 3.9 µM
22 | Cc1ccc(-c2cc(C(F)(F)F)nn2-c2ccc(S(N)(=O)=O)cc2)cc1 [CLX] | 1.4 µM
23 | NS(=O)(=O)c1nnc(NS(=O)(=O)c2ccccc2)s1 [BZA] | 7.15 µM
24 | CCN1CCCC1CNC(=O)c1cc(S(N)(=O)=O)ccc1OC (stereo not drawn) [SLP] | 4.85 µM
25 | Nc1ccc(S(=O)(=O)Nc2nnc(S(N)(=O)=O)s2)cc1 [compound 20, 20] | 0.91 µM
26 | Nc1ccc(S(N)(=O)=O)cc1Cl [compound 8, 8] | > 10 µM
27 | Cc1onc(-c2ccccc2)c1-c1ccc(S(N)(=O)=O)cc1 [VLX] | 0.77 µM
28 | Cc1ccc(S(N)(=O)=O)cc1 [compound 4, 4] | 4.04 µM
29 | Nc1nnc(S(N)(=O)=O)s1 [compound 13, 13] | > 10 µM
30 | NS(=O)(=O)Cc1noc2ccccc12 [ZNS] | > 10 µM
31 | Nc1ccc(S(=O)(=O)Nc2ccc(S(N)(=O)=O)cc2)cc1 [compound 22, 22] | 3.74 µM
32 | Nc1ccc(S(N)(=O)=O)cc1Br [compound 9, 9] | > 10 µM
33 | Nc1ccc(S(=O)(=O)NCc2ccc(S(N)(=O)=O)cc2)cc1 [compound 23, 23] | > 10 µM
34 | NS(=O)(=O)c1ccc(O)cc1 [compound 15, 15] | > 10 µM
35 | NS(=O)(=O)c1cc(Cl)c(Cl)c(S(N)(=O)=O)c1 [DCP] | 3.06 µM
36 | CC1(C)O[C@@H]2[C@@H](CO[C@@]3(COS(N)(=O)=O)OC(C)(C)O[C@@H]23)O1 [TPM] | 3.83 µM
